Results: PMC10509173, “Deep learning driven de novo drug design based on gastric proton pump structures” (Communications Biology, 2023)
Where “and” joins values, the source holds several entries; their conditions need not be identical. Identical values can stand only once.

How the values were obtained:
H+,K+-ATPase [1] = biological target: T1, H+,K+-ATPase (Sus scrofa, UniProt P19156); experiment: Dose-dependent inhibition of H+,K+-ATPase activity, membrane fractions; conditions: for H+,K+-ATPase activity, raw data of dose-dependent inhibition: single replicate values
H+,K+-ATPase [2] = biological target: T1, H+,K+-ATPase; experiment: K+-dependent ATPase assay, double reciprocal plot and Ki estimation; type: biochemical, pig; set-up: H^+,K^+-ATPase-enriched membrane fractions were purified from pig stomach; from tissue; host or cells: pig stomach (gastric membrane fractions); reciprocal K+-stimulated ATPase activity, Lineweaver-Burk raw data: unit not given here; conditions: for reciprocal K+-stimulated ATPase activity, Lineweaver-Burk raw data: replicate values
Source text: Data measured from 96-well plate contained triplicates of four different sets of K^+-dependent ATPase assays in the absence or presence of three different concentrations of synthesized compounds. Data were corrected for background values in the absence of K^+ at each compound concentration, and plot them against the double reciprocal axes in Supplementary Fig. 5. Data were also fitted by using simultaneous nonlinear regression as described previously to estimate their Ki values.

T1 sequence (P19156 2-1034 limits assumed): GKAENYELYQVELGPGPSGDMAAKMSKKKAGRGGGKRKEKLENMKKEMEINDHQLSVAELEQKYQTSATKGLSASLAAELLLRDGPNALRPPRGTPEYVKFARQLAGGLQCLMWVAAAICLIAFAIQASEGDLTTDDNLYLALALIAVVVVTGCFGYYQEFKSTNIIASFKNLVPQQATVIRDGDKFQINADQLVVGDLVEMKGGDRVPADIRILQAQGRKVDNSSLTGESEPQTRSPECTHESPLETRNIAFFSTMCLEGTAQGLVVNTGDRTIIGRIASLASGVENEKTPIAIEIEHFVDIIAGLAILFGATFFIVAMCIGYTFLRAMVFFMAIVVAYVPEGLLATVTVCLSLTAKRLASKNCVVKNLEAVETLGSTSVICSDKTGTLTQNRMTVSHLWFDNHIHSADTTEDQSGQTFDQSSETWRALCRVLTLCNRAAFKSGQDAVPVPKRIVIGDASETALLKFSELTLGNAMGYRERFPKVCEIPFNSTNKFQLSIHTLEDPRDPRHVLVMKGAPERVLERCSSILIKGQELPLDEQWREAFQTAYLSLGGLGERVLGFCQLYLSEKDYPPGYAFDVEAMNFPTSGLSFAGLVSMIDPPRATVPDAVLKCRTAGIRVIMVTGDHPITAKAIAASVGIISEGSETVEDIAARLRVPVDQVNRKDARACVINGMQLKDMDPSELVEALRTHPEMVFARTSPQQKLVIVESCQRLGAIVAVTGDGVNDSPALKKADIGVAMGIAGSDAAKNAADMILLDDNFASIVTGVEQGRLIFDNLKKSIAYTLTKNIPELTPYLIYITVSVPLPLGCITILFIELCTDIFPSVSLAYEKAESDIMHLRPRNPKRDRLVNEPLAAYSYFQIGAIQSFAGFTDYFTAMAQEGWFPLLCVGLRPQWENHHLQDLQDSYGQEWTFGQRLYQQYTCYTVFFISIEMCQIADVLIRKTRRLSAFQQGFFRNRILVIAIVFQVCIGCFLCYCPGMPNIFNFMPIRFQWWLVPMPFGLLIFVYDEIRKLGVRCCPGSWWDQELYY
T1 sequence (P18434 whole entry partner): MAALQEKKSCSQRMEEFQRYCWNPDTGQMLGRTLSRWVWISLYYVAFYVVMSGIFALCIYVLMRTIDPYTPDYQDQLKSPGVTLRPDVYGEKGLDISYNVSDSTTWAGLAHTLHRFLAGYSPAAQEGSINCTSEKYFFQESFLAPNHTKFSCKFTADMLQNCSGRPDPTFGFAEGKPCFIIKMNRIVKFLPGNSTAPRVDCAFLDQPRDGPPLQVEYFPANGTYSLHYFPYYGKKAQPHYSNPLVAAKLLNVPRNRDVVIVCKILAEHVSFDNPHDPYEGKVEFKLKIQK

## CNCC#CCOCc1cc(Cl)ccc1-c1ccc(Cl)cc1 [DQ-02]
H+,K+-ATPase [1]
  IC50: 39.9 ± 3.3 µM
H+,K+-ATPase [1]; [PCAB] -3.30103 (log, unit not given)
  H+,K+-ATPase activity, raw data of dose-dependent inhibition: -3.48 and -2.88 and 2.99 and 4.4 and 2.96 and 5.89
H+,K+-ATPase [1]; [PCAB] -3.52288 (log, unit not given)
  H+,K+-ATPase activity, raw data of dose-dependent inhibition: 0.86 and 1.16 and 4.19 and 5.19 and 4.89 and 4.75
H+,K+-ATPase [1]; [PCAB] -4 (log, unit not given)
  H+,K+-ATPase activity, raw data of dose-dependent inhibition: 42.01 and 43.89 and 31.47 and 31.59 and 28.65 and 29.6
H+,K+-ATPase [1]; [PCAB] -4.30103 (log, unit not given)
  H+,K+-ATPase activity, raw data of dose-dependent inhibition: 44.62 and 46.8 and 48.6 and 46.17 and 46.72 and 37.34
H+,K+-ATPase [1]; [PCAB] -4.52288 (log, unit not given)
  H+,K+-ATPase activity, raw data of dose-dependent inhibition: 56.61 and 55.53 and 56.64 and 57.99 and 58.21 and 59.24
H+,K+-ATPase [1]; [PCAB] -5 (log, unit not given)
  H+,K+-ATPase activity, raw data of dose-dependent inhibition: 76.31 and 74.65 and 77.66 and 80.01 and 78.54 and 73.73
H+,K+-ATPase [1]; [PCAB] -5.52288 (log, unit not given)
  H+,K+-ATPase activity, raw data of dose-dependent inhibition: 94.23 and 90.64 and 95.59 and 93.89 and 93 and 95.88
H+,K+-ATPase [1]; [PCAB] -6 (log, unit not given)
  H+,K+-ATPase activity, raw data of dose-dependent inhibition: 97.7 and 98.02 and 94.2 and 97.49 and 93.51 and 99.15
H+,K+-ATPase [1]; [PCAB] -6.30103 (log, unit not given)
  H+,K+-ATPase activity, raw data of dose-dependent inhibition: 97.98 and 96.67 and 103.79 and 104.81 and 106.59 and 107.52
H+,K+-ATPase [1]; [PCAB] -7 (log, unit not given)
  H+,K+-ATPase activity, raw data of dose-dependent inhibition: 99.57 and 99.45 and 98.18 and 98.05 and 96.63 and 99.09
H+,K+-ATPase [1]; [PCAB] -8 (log, unit not given)
  H+,K+-ATPase activity, raw data of dose-dependent inhibition: 97.5 and 100.13 and 97.23 and 97.51 and 96.21 and 102.69
H+,K+-ATPase [1]; [PCAB] -11 (log, unit not given; possibly placeholder for no compound)
  H+,K+-ATPase activity, raw data of dose-dependent inhibition: 99.85 and 98.59 and 101.41 and 99.82 and 98.22 and 99.87
H+,K+-ATPase [2]; compound concentration 5, 1/KCl 0.05 (units not given)
  reciprocal K+-stimulated ATPase activity, Lineweaver-Burk raw data: 0.0047 and 0.0046 and 0.005
H+,K+-ATPase [2]; compound concentration 5, 1/KCl 0.1 (units not given)
  reciprocal K+-stimulated ATPase activity, Lineweaver-Burk raw data: 0.0059 and 0.0058 (2×)
H+,K+-ATPase [2]; compound concentration 5, 1/KCl 0.125 (units not given)
  reciprocal K+-stimulated ATPase activity, Lineweaver-Burk raw data: 0.0059 (2×) and 0.006
H+,K+-ATPase [2]; compound concentration 5, 1/KCl 0.2 (units not given)
  reciprocal K+-stimulated ATPase activity, Lineweaver-Burk raw data: 0.0059 (2×) and 0.0061
H+,K+-ATPase [2]; compound concentration 5, 1/KCl 0.5 (units not given)
  reciprocal K+-stimulated ATPase activity, Lineweaver-Burk raw data: 0.0114 and 0.0113 and 0.0109
H+,K+-ATPase [2]; compound concentration 5, 1/KCl 1 (units not given)
  reciprocal K+-stimulated ATPase activity, Lineweaver-Burk raw data: 0.0177 and 0.0175 and 0.0166
H+,K+-ATPase [2]; compound concentration 5, 1/KCl 2 (units not given)
  reciprocal K+-stimulated ATPase activity, Lineweaver-Burk raw data: 0.0312 and 0.0335 and 0.0294
H+,K+-ATPase [2]; compound concentration 10, 1/KCl 0.05 (units not given)
  reciprocal K+-stimulated ATPase activity, Lineweaver-Burk raw data: 0.0052
H+,K+-ATPase [2]; compound concentration 10, 1/KCl 0.1 (units not given)
  reciprocal K+-stimulated ATPase activity, Lineweaver-Burk raw data: 0.0066 and 0.0067 and 0.0069
H+,K+-ATPase [2]; compound concentration 10, 1/KCl 0.125 (units not given)
  reciprocal K+-stimulated ATPase activity, Lineweaver-Burk raw data: 0.0073 and 0.0075 and 0.0074
H+,K+-ATPase [2]; compound concentration 10, 1/KCl 0.2 (units not given)
  reciprocal K+-stimulated ATPase activity, Lineweaver-Burk raw data: 0.0079 and 0.0078 and 0.0077
H+,K+-ATPase [2]; compound concentration 10, 1/KCl 0.5 (units not given)
  reciprocal K+-stimulated ATPase activity, Lineweaver-Burk raw data: 0.0173 and 0.016 and 0.018
H+,K+-ATPase [2]; compound concentration 10, 1/KCl 1 (units not given)
  reciprocal K+-stimulated ATPase activity, Lineweaver-Burk raw data: 0.0258 (2×) and 0.029
H+,K+-ATPase [2]; compound concentration 10, 1/KCl 2 (units not given)
  reciprocal K+-stimulated ATPase activity, Lineweaver-Burk raw data: 0.0498 and 0.0514 and 0.0558
H+,K+-ATPase [2]; compound concentration 40, 1/KCl 0.05 (units not given)
  reciprocal K+-stimulated ATPase activity, Lineweaver-Burk raw data: 0.0101 and 0.0102 and 0.0088
H+,K+-ATPase [2]; compound concentration 40, 1/KCl 0.1 (units not given)
  reciprocal K+-stimulated ATPase activity, Lineweaver-Burk raw data: 0.0146 and 0.0158 and 0.0151
H+,K+-ATPase [2]; compound concentration 40, 1/KCl 0.125 (units not given)
  reciprocal K+-stimulated ATPase activity, Lineweaver-Burk raw data: 0.0175 and 0.0157 and 0.013
H+,K+-ATPase [2]; compound concentration 40, 1/KCl 0.2 (units not given)
  reciprocal K+-stimulated ATPase activity, Lineweaver-Burk raw data: 0.0176 and 0.0181 and 0.0182
H+,K+-ATPase [2]; compound concentration 40, 1/KCl 0.5 (units not given)
  reciprocal K+-stimulated ATPase activity, Lineweaver-Burk raw data: 0.0393 and 0.036 and 0.0314
H+,K+-ATPase [2]; compound concentration 40, 1/KCl 1 (units not given)
  reciprocal K+-stimulated ATPase activity, Lineweaver-Burk raw data: 0.0754 and 0.0762 and 0.0737
H+,K+-ATPase [2]; compound concentration 40, 1/KCl 2 (units not given)
  reciprocal K+-stimulated ATPase activity, Lineweaver-Burk raw data: 0.1646 and 0.1689 and 0.18
H+,K+-ATPase [2]; double reciprocal plot analysis, K+-competitive, read-out: estimated inhibition constant Ki
  Ki: 4.65 µM
H+,K+-ATPase [2]; double reciprocal plot, versus K+
  inhibition mode: typical competitive inhibition pattern
